Measured values: the METLIN SMRT retention time set (Domingo-Almenara et al. 2019)

Test: gradient 5% acetonitrile 3 min, to 50% in 2 min, to 85% in 15 min, held 3 min, 100 µL/min
Settings: column: Zorbax Extend-C18 2.1 x 50 mm; eluents: water / acetonitrile, 0.1% formic acid
In short: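 The mobile phases were water and acetonitrile, each with 0.1% formic acid, pumped at 100 μL/min through a Zorbax Extend-C18 column (2.1 × 50 mm, 1.8 μm). Pure standards were injected as mixtures of ~100 molecules and detected by a quadrupole time-of-flight mass spectrometer in positive and negative ionization mode. Retention time came from computationally picked adduct peaks, each inspected by hand.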

CCc1nc2cc(-c3noc(-c4cccc(C#N)c4)n3)ccc2o1
RP-LC retention time: 1070 s

O=C(Cn1c2ccccc2c2ncn(Cc3nc(-c4ccccc4)no3)c(=O)c21)NC1CCCC1
RP-LC retention time: 912 s

COC(=O)c1ccccc1NC(=O)CC1CCCCN1S(=O)(=O)c1ccccc1 (stereo not drawn)
RP-LC retention time: 968 s

COCCc1noc(-c2cnc3nc(C)ccc3c2NC2CCCCCC2)n1
RP-LC retention time: 734 s

CCCN1C(=O)COc2ccc(-c3noc(COc4ccc(OC)cc4)n3)cc21
RP-LC retention time: 1100 s

CCN1C(=O)C2CC3(CCN(Cc4ccc5cc[nH]c5c4)CC3)CN2C1=O (stereo not drawn)
RP-LC retention time: 621 s

Cc1cc(-c2nnc(NC(=O)c3ccn(C)n3)o2)c(C)o1
RP-LC retention time: 654 s

Cc1ccc(-c2cc3c4nnc(SCC(=O)NC5CCCCC5)n4ccn3n2)cc1C
RP-LC retention time: 978 s

Cc1noc2nc(C)n(CC(=O)Nc3cccc(C(F)(F)F)c3)c(=O)c12
RP-LC retention time: 879 s

Cn1cc(CC(=O)NCC#CCN2CCc3ccccc3C2)c2ccccc21
RP-LC retention time: 578 s

O=C(COc1ccccc1)N1CCC(OCc2nc(C3CC3)no2)CC1
RP-LC retention time: 817 s

Cc1ccc(OCc2nc(C3CN(C(=O)C4(c5ccccc5)CC4)C3)no2)cc1
RP-LC retention time: 1030 s

CCc1nc2cc(N3CCCC(C(=O)NCC4CC4)C3)cnc2nc1CC (stereo not drawn)
RP-LC retention time: 762 s

Cc1ccc(F)cc1NC(=O)c1cc2n(n1)CCCC2
RP-LC retention time: 949 s

CC(NC(=O)Nc1ccc(Br)cc1)C(=O)N1CCc2ccccc21 (stereo not drawn)
RP-LC retention time: 941 s

Cn1cnc(S(=O)(=O)N2CCC(C(=O)NCc3ccc(F)cc3)CC2)c1
RP-LC retention time: 670 s

Cc1ncc2c(n1)CCN(C(=O)c1cccc(Cl)c1)C2
RP-LC retention time: 653 s

O=C(c1cccn1-c1nnc(N2CCOCC2)s1)N1CCCCCC1
RP-LC retention time: 747 s

Cc1cccc(NC(=O)C2CCN(S(C)(=O)=O)c3ccccc3O2)c1C (stereo not drawn)
RP-LC retention time: 844 s

O=C(NCc1ccc(F)cc1Cl)C1CCN(c2cc(Oc3ccccc3)ncn2)CC1
RP-LC retention time: 863 s

Cc1cc(N2C=C(C(=O)N3CCOCC3)S(=O)(=O)c3ccccc32)ccc1Br
RP-LC retention time: 855 s

CCn1nc(C)c2c(-c3ccccc3)cc(OC(C)C(=O)Nc3ccc4c(c3)OCO4)nc21 (stereo not drawn)
RP-LC retention time: 1030 s

CC1CC(C)CN(C(=O)C2CCCN(C(=O)c3cc4sccc4n3C)C2)C1 (stereo not drawn)
RP-LC retention time: 963 s

Cc1cccc(CNC(=O)CCc2nc3c(C)cccc3c(=O)n2C)c1
RP-LC retention time: 845 s

O=S(=O)(NCCN1CCOC(c2ccccc2)C1)c1ccc2c(c1)CCCC2 (stereo not drawn)
RP-LC retention time: 632 s

CC(C)Oc1cncc(C(N)=O)c1
RP-LC retention time: 583 s

Cc1ccc(NC(=O)Cn2nc(N3CCC(C)CC3)c3ccccc3c2=O)cc1
RP-LC retention time: 1140 s

Nc1ncnc2c1c(-c1cnc3[nH]ccc3c1)nn2C1CCCC1
RP-LC retention time: 709 s

CCOC(=O)[C@H](CCc1ccccc1)N[C@@H](C)C(=O)N1CCC[C@@H]1C(=O)O
RP-LC retention time: 647 s

CC(C)Cn1cc(CCNS(=O)(=O)c2cccc(C(F)(F)F)c2)c2cccnc21
RP-LC retention time: 1030 s

Cn1c(C(=O)Nc2ccccc2F)cc2c(=O)oc3ccccc3c21
RP-LC retention time: 919 s

CCn1ccc2sc(C)c(C(=O)NC(C)c3ccc(F)cc3)c2c1=O (stereo not drawn)
RP-LC retention time: 808 s

Cc1ccc(NC(=O)C2CCCN(S(=O)(=O)c3c[nH]c(C(=O)N4CCCCCC4)c3)C2)cc1C (stereo not drawn)
RP-LC retention time: 871 s

Cc1ccc2c(c1)N(S(C)(=O)=O)CCC(C(=O)Nc1ccc(Br)cc1F)O2 (stereo not drawn)
RP-LC retention time: 1030 s

COc1ccc(N(C)c2nnc(-c3ccc(NC(=O)c4ccco4)cc3)s2)cc1
RP-LC retention time: 712 s

Cc1cc(=O)n(CC(=O)Nc2cc(F)ccc2F)c(-c2ccccc2)n1
RP-LC retention time: 1010 s

COc1ccc(Cl)cc1NC(=O)NCC1CN(CC2CC2)CC12CCCCC2 (stereo not drawn)
RP-LC retention time: 786 s

O=C(NCc1ccc(F)cc1)N1CC(F)(F)C[C@H]1c1nnc(-c2cnccn2)o1
RP-LC retention time: 747 s

CCn1ccc2sc(C)c(C(=O)N3CCN(c4ccc(OC)cc4)CC3)c2c1=O
RP-LC retention time: 714 s

COc1ccc(CNC(=O)Cn2c(N3CCCC3)nc(C)cc2=O)cc1
RP-LC retention time: 612 s

O=C(Nc1ccc2c(c1)OCCO2)C1CCN(S(=O)(=O)c2ccc3[nH]c(=O)ccc3c2)CC1
RP-LC retention time: 691 s

CCCCS(=O)(=O)NCC#CCN1CCc2ccccc2C1
RP-LC retention time: 564 s

CCOc1ccc(-c2[nH]ncc2CNS(=O)(=O)Cc2c(F)cccc2Cl)cc1
RP-LC retention time: 882 s

CCOc1ccc(CNC(=O)C2CCN(C(=O)C3Sc4ccccc4NC3=O)CC2)cc1 (stereo not drawn)
RP-LC retention time: 743 s

Cc1cc(C)c(S(=O)(=O)NCCn2c(C)cnc2C2CC2)c(C)c1
RP-LC retention time: 647 s

CCOC(=O)c1[nH]c(C)c(C(=O)N2CCC(CC(=O)NC3CCCC3)CC2)c1C
RP-LC retention time: 696 s

O=C(Nc1cc(F)ccc1Cl)c1cnc(-c2ccc(F)cc2)nc1-c1ccncc1
RP-LC retention time: 1010 s

O=C(NCc1ccco1)C1CCN(Cc2cc3ccccc3n2Cc2ccccc2Cl)CC1
RP-LC retention time: 790 s

O=C(CNC(=O)c1ccc(C(F)(F)F)cc1)Nc1nc2ccccc2[nH]1
RP-LC retention time: 688 s

CCN1CCN(C(=O)C2CCN(S(=O)(=O)c3c(C)nn(-c4ccc(Cl)cc4)c3C)CC2)CC1
RP-LC retention time: 670 s

Cc1ccc(C(=O)Nc2ccc(N3CCN(Cc4ccccc4)C3=O)nc2)s1
RP-LC retention time: 847 s

O=C(C1=CN(c2ccc(F)c(Cl)c2)c2cc(F)ccc2S1(=O)=O)N1CCOCC1
RP-LC retention time: 775 s

CCOc1ccccc1NC(=O)CSc1ncnc2c1nnn2-c1ccc(OC)cc1
RP-LC retention time: 1030 s

CCOC(=O)c1noc2nc(C)nc(Nc3cccc(Cl)c3)c12
RP-LC retention time: 1200 s

COc1ccc(F)cc1S(=O)(=O)N1C[C@@H]2C[C@H]1C[C@@H]2NC(=O)c1ccccc1
RP-LC retention time: 786 s

Cc1nn(-c2ccccc2)c(C)c1S(=O)(=O)N1CCC(C(=O)Nc2ccccc2)CC1
RP-LC retention time: 926 s

CCOC(=O)c1ccc(NC(=O)C2CCN(C(=O)C3Sc4ccccc4NC3=O)CC2)cc1 (stereo not drawn)
RP-LC retention time: 805 s

CC(C)(C)NC(=O)NCC(c1ccsc1)N1CCc2ccccc2C1 (stereo not drawn)
RP-LC retention time: 593 s

CNC(=O)C1CCCN(c2nc3ncn(CC(=O)Nc4ccccc4C(F)(F)F)c(=O)c3s2)C1 (stereo not drawn)
RP-LC retention time: 663 s

CCSc1nnc(NC(=O)CNC(=O)c2ccc(=O)[nH]c2)s1
RP-LC retention time: 571 s

Cc1ccc(-c2nc3sc(N4CCCCC4)nn3c2NC(=O)c2ccnn2C)cc1
RP-LC retention time: 887 s

O=C(Cn1ncn2nc(-c3ccccc3)cc2c1=O)NCCCN1CCCC1
RP-LC retention time: 602 s

CCc1ccc(N2CCC(C(=O)NCCc3c[nH]c4ccc(C)cc34)C2=O)cc1 (stereo not drawn)
RP-LC retention time: 1010 s

O=c1c(-c2ccccc2)c(N2CCN(c3ccccn3)CC2)c1=O
RP-LC retention time: 620 s

CCOc1cccc(-c2noc(Cn3ccnc3C)n2)c1
RP-LC retention time: 647 s

Cc1cc(C)n2nc(SCC(=O)Nc3ccccc3[N+](=O)[O-])nc2n1
RP-LC retention time: 686 s

CCCn1ccc2sc(C)c(C(=O)NC(C)c3ccccc3)c2c1=O (stereo not drawn)
RP-LC retention time: 900 s

O=C(O)c1cn(-c2cccc(Br)c2)nn1
RP-LC retention time: 723 s

CCCc1noc(-c2cccnc2N2CCCN(Cc3cc(C)ccc3C)CC2)n1
RP-LC retention time: 790 s

O=C(Nc1ccc(OCC(=O)N2CCN(c3cccc(Cl)c3)CC2)nc1)C1CC1
RP-LC retention time: 836 s

Cc1cc(NC(=O)C2(C)Oc3cccnc3NC2=O)ccc1F (stereo not drawn)
RP-LC retention time: 739 s

COc1ccc(NC(=O)c2ccc(Cl)s2)c2ccccc12
RP-LC retention time: 920 s

Cc1ccn2c(NC(=O)c3ccc(C)c(C)c3)c(-c3ccccc3)nc2c1
RP-LC retention time: 709 s

O=C(NCc1cccc(Br)c1)c1cn2ccccc2n1
RP-LC retention time: 730 s

COCc1cc(=O)n(CC(=O)Nc2cccc(SC)c2)c(N2CCOCC2)n1
RP-LC retention time: 857 s

CC1(C)CS(=O)(=O)N(c2ccc(C(=O)NCCc3c[nH]c4ccccc34)cc2)C1=O
RP-LC retention time: 825 s

CCn1c(C(=O)NCCN2CCCC2)c(N2CCCC2=O)c2cc(OC)ccc21
RP-LC retention time: 624 s

Cn1cccc1C(=O)N1C[C@@H]2C[C@H]1C[C@@H]2NC(=O)c1cccs1
RP-LC retention time: 700 s

Cc1cn2c3c(=O)n(Cc4c(F)cccc4Cl)c(=O)n(C)c3nc2n1C(C)C
RP-LC retention time: 886 s

O=C(Nc1ccc2nc(N3CCN(C4CCCCC4)CC3)cc(C(=O)O)c2c1)c1ccccc1Cl
RP-LC retention time: 627 s

Cc1ccc(C(C)NC(=O)c2cn(-c3ccc(NC(=O)CC(C)C)cn3)cn2)cc1 (stereo not drawn)
RP-LC retention time: 872 s

CN(C1CCc2nn(CC3CC3)c(=O)n2CC1)S(=O)(=O)c1ccccc1F (stereo not drawn)
RP-LC retention time: 706 s

CCn1nnc2c(N3CCOCC3)nc(-c3ccc(NC(=O)Nc4ccc(C(=O)N5CCN(C)CC5)cc4)cc3)nc21
RP-LC retention time: 690 s

Cc1noc2ncnc(N3CCCC(C(=O)N4CCN(Cc5ccc6c(c5)OCO6)CC4)C3)c12 (stereo not drawn)
RP-LC retention time: 611 s

COCCN1C(=O)CCc2cc(NC(=O)COc3cccc(C)c3)ccc21
RP-LC retention time: 799 s

CCn1nccc1-c1cccc(-c2noc(CCS(=O)(=O)c3ccc(C)cc3)n2)c1
RP-LC retention time: 993 s

COc1ccc(C)cc1NC(=O)Cn1nc2c(Oc3cccc(F)c3)nccn2c1=O
RP-LC retention time: 936 s

COc1cccc(-c2nc3sc(C(=O)N4CCOCC4)c(C)n3c2NC(C)(C)C)c1
RP-LC retention time: 795 s
